# From EP4534147A1, “STING ANTAGONIST COMPOUNDS” (Sulis Therapeutics ApS, priority 2023, dated 2025)
# Tests used:
# STING = biological target: T1, STING (Homo sapiens, UniProt Q86WV6); assay: Human FB STING antagonist assay (IFN-a/b release); format: cell-based; conditions: Human skin fibroblasts, 2h pre-treatment, 300 nM GSK STING agonist (CAS number: 2138299-34-8) for 20 h, release of IFN-a/b by HEK-Blue IFN-α/β bioassay
# T1 construct: endogenous in cells; host or cells: human skin fibroblasts
# T1 sequence (Q86WV6 whole entry): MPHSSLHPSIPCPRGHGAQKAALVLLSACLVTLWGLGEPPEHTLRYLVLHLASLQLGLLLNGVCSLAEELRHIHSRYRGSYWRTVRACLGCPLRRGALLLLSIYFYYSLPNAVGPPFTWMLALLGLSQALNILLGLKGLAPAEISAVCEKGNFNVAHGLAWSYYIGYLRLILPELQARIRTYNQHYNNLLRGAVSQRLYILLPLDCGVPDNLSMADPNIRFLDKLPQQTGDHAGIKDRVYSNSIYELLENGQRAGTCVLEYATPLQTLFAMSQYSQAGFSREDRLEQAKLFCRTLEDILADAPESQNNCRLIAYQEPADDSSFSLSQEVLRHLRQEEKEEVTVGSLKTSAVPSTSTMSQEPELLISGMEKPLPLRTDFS
# Protocol: STING antagonist activity can be determined by a human fibroblast antagonist assay. For this, human skin fibroblasts are pre-treated for 2h with a serial dilution of the compound, and are then stimulated for 20 hours with 300 nM STING agonist (e.g. from GSK, CAS number: 2138299-34-8). Supernatants are then harvested and assessed for IFN-a/b release, which indicates STING activation. IFN-a/b concentration in the supernatant is determined, e.g. using an IFN-α/β bioassay. IC50 values are calculated using a non-linear regression fitting, variable slope (4 parameters).
# Human skin fibroblasts were pre-treated for 2h with a serial dilution of test compound followed by stimulation with mock or 300 nM GSK STING agonist (CAS number: 2138299-34-8). Supernatants were harvested after 20 h of STING agonist stimulation. Release of IFN-a/b was determined using HEK-Blue IFN-α/β bioassay (Invivogen). Cellular viability was assessed using Alamar Blue HS assay. IC50 values were estimated using a non-linear regression fitting, variable slope (4 parameters) in GraphPad Prism 9.3.1.
# [1] = biological target: T2, C-terminal domain (CTD) of human STING (Homo sapiens, UniProt Q86WV6); assay: STING binding TR-FRET assay (CisBio Human STING WT Binding Kit); set-up: purchased CisBio 64BDSTGPEG; conditions: recombinant human STING with His-tag, D2-labeled active site probe, 60 min at room temperature
# Protocol: STING binding can be determined by a time-resolved FRET assay. For instance, a STING protein having a His-tag can be used. A D2-labeled active site probe can be used to accept 620 nm emission from Anti-HIS-Tb-STING. Increased fluorescence is measured at 665 nm. Molecules that compete for the probe binding site will result in a lower 665 nm signal. The assay can be performed in low-volume white 96-well plates containing 5 µL compounds in an appropriate diluent buffer. Following 60 minutes incubation at room temperature in the dark, fluorescence emission at 665 nm is measured following 330 nm xenon flash excitation. pIC50 values can be determined using a standard four parameter curve fit.
# The affinity of molecules to the C-terminal domain (CTD) of human STING was determined using a commercial Human STING WT Binding Kit (CisBio, cat.# 64BDSTGPEG). In this time-resolved FRET assay, a recombinant human STING protein construct with a His-tag was employed. When bound to STING, a D2-labeled active site probe accepts the 620 nm emission from Anti-HIS-Tb-STING and an increase in fluorescence is measured at 665 nm. Molecules that compete for the probe binding site will result in a low 665 nm signal. The assay was run in CisBio low-volume white 96-well plates (catalog# 66PL96005) containing 5 µL compounds in Diluent Buffer (supplied with the CisBio kit). A solution of 1xSTING, 1x Anti-HIS-Tb and 1X D2-probe in TB detection buffer (kit supplied) was added to the plate. Plates were centrifuged for 2 min at 500 rpm, incubated for 60 min at room temperature in the dark, and then fluorescence emission at 665 nm following 330 nm xenon flash excitation on an BioTek synergy H1 multimode reader (Agilent) was measured. The plC50 values were determined using a standard four parameter curve fit in GraphPad Prism.
# Target sequence in this assay (Q86WV6 135-379 limits assumed): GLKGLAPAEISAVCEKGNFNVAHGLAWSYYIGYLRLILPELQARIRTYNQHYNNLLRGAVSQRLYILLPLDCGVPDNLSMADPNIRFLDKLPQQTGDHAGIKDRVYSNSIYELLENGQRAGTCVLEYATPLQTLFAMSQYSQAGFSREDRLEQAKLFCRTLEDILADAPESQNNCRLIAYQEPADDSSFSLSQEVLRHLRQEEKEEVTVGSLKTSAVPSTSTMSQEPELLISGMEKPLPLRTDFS
# [2] = biological target: T2, C-terminal domain (CTD) of human STING; assay: STING binding FP assay I (fluorescence polarization competition binding); set-up: recombinant human STING protein (155-379); conditions: recombinant human STING protein (155-379), 35 nM STING, 4 nM fluorescein-labelled STING ligand (Probe 1), 20 min at room temperature
# Protocol: The interaction between molecules and the C-terminal domain (CTD) of human STING was evaluated using a competition binding assay. In this assay, recombinant human STING protein (155-379) and a STING binding fluorescent probe were employed. Upon binding of the probe to STING, the rotation of the fluorescent probe is slowed due to the larger molecular size of the protein-bound complex. As a result, emitted light retains its plane of polarization, leading to an increase in fluorescence polarization. Molecules competing for the probe binding site displace the probe, which leads to rapid randomization of the polarization plane of the emitted light and a subsequent decrease in measured fluorescence polarization signal. Change in polarization was measured, allowing a comparative evaluation of the binding affinities of different compounds to the target protein.
# The assay was performed in 96-well plates (ThermoFisher, cat.# 237108) containing 100 µl : 10 µL test compound in 10% DMSO and buffer A (150 mM NaCl, 50 mM HEPES pH 7.5, 1 mM DTT) + 90 µL prepared master mix solution of: 4 nM fluorescein-labelled STING ligand (Probe 1; synthesis described above) in buffer A + 0.055% Tween-20 (v/v) and 35 nM STING in buffer A. Post mixing, plates were agitated at 600 rpm and incubated for 20 min at room temperature. Subsequent measurements of the fluorescence polarization signal were made on a BioTek Synergy-H1 plate reader, using a polarization filter; excitation: 485/20 nm, emission: 528/20 nm) with a gain-setting of 75. IC50 values were determined using a standard non-linear regression four-parameter curve fit in Graphpad Prism.
# Target sequence in this assay (Q86WV6 155-379): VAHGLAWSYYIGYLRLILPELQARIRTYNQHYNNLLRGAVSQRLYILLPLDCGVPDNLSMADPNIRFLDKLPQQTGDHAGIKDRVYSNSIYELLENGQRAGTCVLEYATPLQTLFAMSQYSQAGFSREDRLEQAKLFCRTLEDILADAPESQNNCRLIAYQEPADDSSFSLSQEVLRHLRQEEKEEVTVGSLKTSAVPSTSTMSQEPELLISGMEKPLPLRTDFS
Structure (SMILES),IC50 (STING) [nM],IC50 [1] [nM],IC50 [2] [nM]
"CCn1nc(C)cc1C(=O)N=c1n(C)c2cc(C(N)=O)ccc2n1CCC(CCn1c(=NC(=O)c2cc(C)nn2CC)n(C)c2cc(C(N)=O)ccc21)OCC(=O)N1CCOCC1 (stereo not drawn) [Example 7, 1-(5-{5-Carbamoyl-2-[(1-ethyl-3-methyl-5-pyrazolyl)carbonylimino]-3-methyl-2,3-dihydro-1H-1,3-benzimidazol-1-yl}-3-(2-morpholino-2-oxoethoxy)pentyl)-2-[(1-ethyl-3-methyl-5-pyrazolyl)carbonylimino]-3-methyl-2,3-dihydro-1H-1,3-benzimidazole-5-carboxamide]",3500,0.267,< 30
"CCn1nc(C)cc1C(=O)N=c1n(C)c2cc(C(N)=O)ccc2n1CCC(CCn1c(=NC(=O)c2cc(C)nn2CC)n(C)c2cc(C(N)=O)ccc21)OCC(=O)N1CCc2cc(OC)ccc2C1 (stereo not drawn) [Example 9, 1-(5-{5-Carbamoyl-2-[(1-ethyl-3-methyl-5-pyrazolyl)carbonylimino]-3-methyl-2,3-dihydro-1H-1,3-benzimidazol-1-yl}-3-[2-(6-methoxy-1,2,3,4-tetrahydro-2-isoquinolyl)-2-oxoethoxy]pentyl)-2-[(1-ethyl-3-methyl-5-pyrazolyl)carbonylimino]-3-methyl-2,3-dihydro-1H-1 ,3-benzimidazole-5-carboxamide]",13100,0.665,< 30
"CCn1nc(C)cc1C(=O)N=c1n(C)c2cc(C(N)=O)ccc2n1CCC(CCn1c(=NC(=O)c2cc(C)nn2CC)n(C)c2cc(C(N)=O)ccc21)OCC(=O)Nc1ccccc1 (stereo not drawn) [Example 6, 1-{3-[(N-Phenylcarbamoyl)methoxy]-5-{5-carbamoyl-2-[(1-ethyl-3-methyl-5-pyrazolyl)carbonylimino]-3-methyl-2,3-dihydro-1H-1,3-benzimidazol-1-yl}pentyl}-2-[(1-ethyl-3-methyl-5-pyrazolyl)carbonylimino]-3-methyl-2,3-dihydro-1H-1,3-benzimidazole-5-carboxamide]",7600,0.6,< 30
